Results reported in patent US8575214B2, “MGlu 2/3 agonists” (Eli Lilly and Company, priority 2012, dated 2013).

Tests used:
hPepT1 = biological target: T1, hPepT1 (Homo sapiens, UniProt P46059); assay: In vitro PepT1 GlySar inhibition screen and IC50 determination; format: cell-based; settings: PepT1 transiently transfected HeLa cells; for inhibition at 5000 µM: pH 6.0, 3 minutes, read-out: hPepT1 [3H]Gly-Sar uptake inhibition at 5 mM
T1 construct: expressed in transfected cells; host or cells: HeLa cells (ATCC), transient transfection with PepT1 DNA using FuGene6
T1 sequence (P46059 1-708): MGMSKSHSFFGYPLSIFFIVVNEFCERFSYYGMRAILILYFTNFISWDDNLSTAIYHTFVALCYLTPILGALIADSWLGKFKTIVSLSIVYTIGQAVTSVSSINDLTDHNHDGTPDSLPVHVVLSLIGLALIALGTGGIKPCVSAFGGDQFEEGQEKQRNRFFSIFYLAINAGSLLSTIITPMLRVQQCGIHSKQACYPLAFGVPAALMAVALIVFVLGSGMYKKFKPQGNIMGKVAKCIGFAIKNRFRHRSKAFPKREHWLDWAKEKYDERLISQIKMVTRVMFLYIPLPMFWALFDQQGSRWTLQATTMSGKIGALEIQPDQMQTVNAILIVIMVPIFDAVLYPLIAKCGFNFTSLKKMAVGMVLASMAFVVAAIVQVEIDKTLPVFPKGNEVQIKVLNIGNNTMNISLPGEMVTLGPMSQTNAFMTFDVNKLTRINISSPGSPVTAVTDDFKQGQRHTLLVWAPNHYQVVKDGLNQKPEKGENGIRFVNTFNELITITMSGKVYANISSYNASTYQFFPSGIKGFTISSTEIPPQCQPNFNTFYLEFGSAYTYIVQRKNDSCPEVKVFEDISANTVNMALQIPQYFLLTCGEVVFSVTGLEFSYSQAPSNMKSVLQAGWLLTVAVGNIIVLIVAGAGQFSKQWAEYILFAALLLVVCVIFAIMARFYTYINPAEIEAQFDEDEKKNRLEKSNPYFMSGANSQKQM
Experimental: HeLa cells, […], (American Type Culture Collection) are grown in Hyclone Medium (Invitrogen, Cat# SH30243) containing 10% fetal bovine serum (FBS), 0.1 mM non essential amino acids (NEAA), and 100 units/mL penicillin with 100 μg/mL streptomycin at 37° C. in a 5% CO2 humidified atmosphere. The cell line is used for up to 40 passages and then discarded. Frozen cells in 1 ml vials are thawed in water bath for 1-2 minutes and added to 5 mL of cell medium at 37° C. Each of the T-flasks is provided with 8.5 mL of the fresh medium and 1.5 mL of the cell stock. Cells are passaged twice during a week. This is achieved by rinsing the flasks with 10 mL of phosphate buffered saline-ethylene diaminetetra acetic acid (PBS-EDTA), adding 2 mL of trypsin for 2-5 minutes, to detach the cells, and adding 8 mL of fresh medium to inhibit further activity of trypsin. Each new flask receives a combination of 8.5 mL of fresh medium and 1.5 mL of cell stock, in order to obtain 1:6 cell dilution. Cells are incubated at 37° C., until ready for the uptake study.
Cells that are 70-80% confluent in the T-flasks are plated 1 day prior to the transfection procedure. The flask with the cell stock is treated with PBS-EDTA and trypsin to detach the cells, and transfection medium is used from this point. Transfection medium consists of Dulbecco's Modified Eagle Medium (DMEM)+NEAA. To each well, 0.5 mL of the cell mixture is added (1.3×10^5 is the desired cell concentration) and the cells are incubated at 37° C. overnight. Twenty four hours before the assay, cells are transfected with PEPT1. Transfection mixture is prepared by mixing 600 μL of serum free transfection medium, 18 μL of FuGene6 (Roche Diagnostics), and 11 μg of the PepT1 DNA. The transfection reagent-DNA complex is incubated for 20 minutes and 24 μL of the reagent-DNA complex is added to each well.
J. Pharm. Exper Ther. 310:437-445). […] Uptake media consists of 140 mM NaCl, 5.4 mM KCl, 1.8 mM CaCl2, 0.8 mM MgSO4, 5 mM Glucose, 25 mM tris(hydroxymethyl)aminomethane buffer (TRIS). The solution is then brought to pH 6.0 using 2-(N-morpholino)ethanesulfonic acid. The incubation volume is 500 μL and is performed at room temperature for 3 minutes. To stop the uptake at the conclusion of the incubation time, the uptake media is aspirated off of the cell monolayer and 500 μL of ice cold PBS added to the well. The cells are washed 3 times with 500 μL of room temperature PBS without Ca^+2 and Mg^+2. The cells are then lysed with 300 μL of 1% Triton X100 H2O solution. […] A no inhibitor control is established and the percent inhibition of each prodrug is calculated with respect to this control.
The incubation and sampling procedures are exactly the same as the PepT1 screen described above.

[1] = system: male, Sprague-Dawley rats; assay: Reversal of phencyclidine (PCP)-induced hyperlocomotor activity in rats; format: in vivo, rat; settings: Rattus norvegicus; p.o., overnight fasted rats, 4 hours prior to 5 mg/kg PCP
Source text: Motor activity is monitored by placing individual male, Sprague-Dawley (Harlan, Indianapolis, Ind.) rats in transparent, plastic shoe-box cages of the dimensions 45×25×20 cm, with 1 cm depth of wood chips as bedding, and a metal grill on top of the cage. Motor monitors (Kinder Scientific) consist of a rectangular rack of 12 photobeams arranged in an 8×4 formation, (or a high density grouping of 22 in a 15×7 pattern) at a height of 5 cm, with a second rack (for measuring rearing behaviors) at a height of 15 cm. The shoe box cage is placed inside of these racks, with the racks on a 3 foot high tabletop in an isolated room. A compound of the invention (active) is dosed (intraperitoneal route) within a range of 0.3-10 mg/kg, 30 minutes prior to a 5 mg/kg challenge dose of phencyclidine (PCP). A compound of the invention (prodrug) is orally dosed within a range of 0.3-30 mg/kg, in overnight fasted rats, 4 hours prior to a 5 mg/kg challenge dose of PCP. On the test day, rats are placed in the test cage and allowed to acclimate for 30 minutes prior to PCP challenge; rats are monitored for an additional 60 minutes following PCP administration.
Data analysis and ED50 calculations are conducted using GraphPad Prism (San Diego, Calif. USA). Power analyses have determined that 8-10 rats per group are needed to have appropriate statistical power for detecting treatment differences (power=0.8). A one-way analysis of variance (ANOVA) with a post-hoc Dunnett's multiple comparison test is conducted on the total 60 minute locomotor activity. ED50 calculations are performed using non-linear regression curve fitting on percent reversal transformed data for each dose.

[2] = 1 h, 10 µM, pH 7.4
Experimental: Frozen human duodenum intestinal homogenates (1:2 tissue:buffer ratio using 100 mM Tris Phosphate buffer, pH 7.4) are obtained from Celsius In Vitro Technologies (Baltimore, Md.) that were both phenylmethylsulphonylfluoride (PMSF) and EDTA free.
All original tissue collections are performed at 4° C. and immediately frozen at −70° C. Human intestinal homogenates are thawed and diluted to a final protein concentration of 0.5 mg/mL in 100 mM PBS buffer, pH 7.4 immediately prior to the incubations.
Incubations are conducted in 96-well plates and all prodrugs are run in duplicate on each day. Stock prodrug solutions are prepared in water at a concentration of 1 mM. A 200 μL aliquot of 0.5 mg/mL intestinal homogenate and 196 μL of 100 mM PBS buffer are placed in a 96-well plate in a 37° C. water bath. Using a 96-well pipettor, 4 μL of the 1 mM prodrug solution is transferred into the homogenate. Immediately after addition of the prodrug (time zero) and after 1 hour incubation, 50 μL samples of the incubation mixture are removed using an automated disposable simultaneous 96 well pipettor and added directly to 200 μL of methanol quench solution containing 100 ng/mL of Internal Standard. The samples are then centrifuged at 3500 rpm for 5 minutes at 10° C. The supernatant (200 μL) is transferred to a final 96 well PCR plate and sealed for analysis by LC/MS/MS.
Concentrations of hydrolyzed active metabolite in the incubation mixtures are determined using LC/MS/MS detection on a Sciex API 4000 quadrapole mass spectrometer with Analyst version 1.4.2, TurbolonSpray, positive ionization, and Selected Reaction Monitoring (SRM). […]
Averages and standard deviations are calculated using Microsoft® Office Excel® 2007. Amount of hydrolysis is determined as a molar percentage of active metabolite formed relative to prodrug concentration added.

Row | IC50 (hPepT1; 0.0625 to 25 mM, read-out: hPepT1 [3H]Gly-Sar uptake inhibition IC50) | inhibition at 5000 µM (hPepT1) | human intestinal hydrolysis relative to Internal Prodrug A [2] | SMILES | ED50 [1]
1 | 250 µM | 87% | 44% | CSCC[C@H](N)C(=O)N[C@@]1(C(=O)O)CC2(CC2)[C@H]2[C@H](C(=O)O)[C@H]21.Cl [Example 6, (1S,2S,5R,6S)-2-[[(2S)-2-Amino-4-methylsulfanyl-butanoyl]amino]spiro[bi-cyclo[3.1.0]hexane-4,1′-cyclopropane]-2,6-dicarboxylic acid hydrochloride] | 4.31 mg/kg
2 | – | 78% | 34% | Cl.NCC(=O)N[C@@]1(C(=O)O)CC2(CC2)[C@H]2[C@H](C(=O)O)[C@H]21 [Example 7, (1S,2S,5R,6S)-2-[(2-Aminoacetyl)amino]spiro[bi-cyclo[3.1.0]hexane-4,1′-cyclo-propane]-2,6-dicarboxylic acid hydrochloride] | –
